Read-outs that look alike come from different tables or passages of the source. Each block holds one molecule with its values, some of them ahead of it.
Columns and labels:
[1] = test system: C57 mice; assay: Oral glucose tolerance test (OGTT) in mice; assay type: in vivo; conditions: 10 mg/kg intragastric, glucose 5 g/kg 60 min after administration
Protocol: The oral glucose tolerance test (OGTT) was performed to evaluate the hypoglycemic effect of the compounds of the present invention in mice. 8-week old male C57 mice were purchased from Beijing Vital River Laboratory Animal Technology Co., Ltd. (Laboratory Animal Certificate No. SCXK (Beijing) 2012-0001) and used in the test The mice were grouped based on the base level of blood sugar after fasted, with 10 animals per group. The test compounds were formulated into a 1 mg/ml suspension and administered intragastrically at a dose of 10 mg/kg, while a blank agent was administered to the blank control group. 60 min after the administration, a 50% aqueous solution of glucose was dosed (5 g/kg), and the blood sugar level of each mouse was measured with a OneTouch blood glucose meter manufactured by Johnson & Johnson at 0 min, 15 min, 30 min, 45 min, 60 min, and 120 min.

[2] = Evaluation of pharmacokinetics in rats; assay type: in vivo; conditions: rat, whole blood, po, male SD rats, 5 mg/kg intragastric; for Cmax: read-out: Blood drug level Cmax; for half-life: read-out: Half-life T1/2 (converted)
Protocol: Male SD rats (purchased from Vital River Laboratory Animal Technology Co. LTD. License No. 11400700005540) each weighing 200 to 240 g were fasted overnight. On the day of experiments, 3 SD rats were each intragastrically administered with 5 mg/kg compound, and a 0.20 ml blood sample was taken from their jugular veins before the administration and 15 min, 30 min, 45 min, 1 h, 2 h, 4 h, 8 h, 12 h, and 24 h after the administration, to an EDTA tube. Acetonitrile containing an internal reference (verapamil 5.00 ng/ml, and glibenclamide 50.0 ng/ml) was added to the blood sample, followed by vigorous vortexing and centrifuging at 13,000 rpm for 10 min. The supernatant was taken for the LC-MS/MS assay. Pharmacokinetics parameters were calculated by using the non-compartment mode in Pharsight Phoenix 6.3.

[3] = Concentration of the compound in monkey plasma by LC-MS/MS; assay type: in vivo; conditions: male, rhesus monkey, Rhesus monkeys, oral 10.0 mg/kg
Protocol: The laboratory animals were healthy male Rhesus monkeys each weighing about 5 kg, provided by Sichuan Primed Bio-tech Group Co. Ltd. Fasted Rhesus monkeys were grouped based on the body weight. […] For the enzymatic activity assay, 40 μl plasma was taken from each test sample, and 10 μl H-Ala-Pro-AFC substrate (0.2 mM) was added thereto, followed by reaction for 15 min. […] The period during which the inhibition of plasma. DPP-IV enzymatic activity was ≥80% was calculated for the test compounds, and the concentration of the compounds in plasma was measured by LC-MS/MS.

[4] = biological target: T1, plasma DPP-IV (Rattus norvegicus, UniProt P14740); assay: Enzymatic screening experiment on plasma DPP-IV in rats; assay type: in vivo; conditions: SD rats, oral 3.0 mg/kg, plasma DPP-IV activity
T1 construct: from tissue; host or cells: plasma of SD rats
T1 sequence (P14740 37-767 limits assumed): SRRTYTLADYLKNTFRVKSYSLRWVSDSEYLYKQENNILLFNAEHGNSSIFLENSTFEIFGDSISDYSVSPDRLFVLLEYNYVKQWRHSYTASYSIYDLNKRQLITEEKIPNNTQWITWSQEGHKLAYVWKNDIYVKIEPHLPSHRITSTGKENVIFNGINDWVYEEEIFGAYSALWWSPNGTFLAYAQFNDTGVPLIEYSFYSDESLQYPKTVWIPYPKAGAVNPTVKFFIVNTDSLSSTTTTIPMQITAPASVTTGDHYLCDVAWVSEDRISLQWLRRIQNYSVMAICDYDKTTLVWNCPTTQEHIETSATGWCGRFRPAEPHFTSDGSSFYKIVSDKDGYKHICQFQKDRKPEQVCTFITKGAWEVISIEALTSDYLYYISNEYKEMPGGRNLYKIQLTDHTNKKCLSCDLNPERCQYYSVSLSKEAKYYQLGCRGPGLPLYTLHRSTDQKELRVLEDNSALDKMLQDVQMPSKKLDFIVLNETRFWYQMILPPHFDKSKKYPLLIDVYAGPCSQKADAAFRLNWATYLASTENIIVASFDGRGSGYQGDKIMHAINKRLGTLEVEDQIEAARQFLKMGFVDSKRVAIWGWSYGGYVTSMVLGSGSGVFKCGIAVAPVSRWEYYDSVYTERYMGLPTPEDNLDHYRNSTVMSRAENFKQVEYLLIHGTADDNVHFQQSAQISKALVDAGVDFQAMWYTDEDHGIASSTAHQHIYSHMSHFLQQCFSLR
Source text: Fasted rats were grouped based on the body weight.

[5] = biological target: plasma DPP-IV (Canis lupus familiaris, UniProt A0A8I3Q2I8); conditions: beagle dogs, oral 10.0 mg/kg, plasma DPP-IV activity
Chain of plasma DPP-IV (Canis lupus familiaris, UniProt A0A8I3Q2I8) (A0A8I3Q2I8 1-765): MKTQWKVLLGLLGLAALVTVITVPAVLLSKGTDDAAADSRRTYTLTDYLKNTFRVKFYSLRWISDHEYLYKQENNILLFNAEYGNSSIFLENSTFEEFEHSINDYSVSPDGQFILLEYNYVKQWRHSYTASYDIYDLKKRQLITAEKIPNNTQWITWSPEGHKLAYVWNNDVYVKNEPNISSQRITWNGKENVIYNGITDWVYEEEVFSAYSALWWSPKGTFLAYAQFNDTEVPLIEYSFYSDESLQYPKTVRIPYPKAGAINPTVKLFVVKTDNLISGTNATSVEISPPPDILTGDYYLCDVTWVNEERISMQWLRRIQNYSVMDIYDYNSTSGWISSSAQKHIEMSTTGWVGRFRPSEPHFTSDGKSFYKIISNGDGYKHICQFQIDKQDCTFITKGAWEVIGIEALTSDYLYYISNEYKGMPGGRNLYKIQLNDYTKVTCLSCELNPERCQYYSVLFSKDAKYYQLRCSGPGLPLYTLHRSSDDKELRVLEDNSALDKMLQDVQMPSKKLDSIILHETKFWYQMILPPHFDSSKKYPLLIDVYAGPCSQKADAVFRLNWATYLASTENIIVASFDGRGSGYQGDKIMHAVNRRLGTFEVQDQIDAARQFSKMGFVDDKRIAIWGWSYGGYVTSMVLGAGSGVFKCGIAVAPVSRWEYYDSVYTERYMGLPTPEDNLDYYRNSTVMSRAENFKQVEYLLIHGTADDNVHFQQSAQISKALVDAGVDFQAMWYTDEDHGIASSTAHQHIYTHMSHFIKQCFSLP
Protocol: The laboratory animals were male beagle dogs provided by Chengdu Dashuo Biological Sciences and Technology Co., Ltd. Fasted beagle dogs were grouped based on the body weight. The test group was orally administrated with the test compounds at a dose of 10.0 mg/kg. Blood samples were taken at various time points after the administration and subjected to anticoagulation with EDTA-2Na. […] Plasma was taken and preserved at −20° C. For the enzymatic activity assay, 40 μl plasma was taken from each test sample, and 10 μl H-Ala-Pro-AFC substrate (0.2 mM) was added thereto, followed by reaction for 15 nm.

[6] = biological target: DPP-IV (Mus musculus, UniProt P28843); assay: Effect of single oral administration on the enzymatic activity of DPP-IV in ob/ob mice; conditions: read-out: DPP-IV enzymatic activity
Chain of DPP-IV (P28843 37-760 limits assumed): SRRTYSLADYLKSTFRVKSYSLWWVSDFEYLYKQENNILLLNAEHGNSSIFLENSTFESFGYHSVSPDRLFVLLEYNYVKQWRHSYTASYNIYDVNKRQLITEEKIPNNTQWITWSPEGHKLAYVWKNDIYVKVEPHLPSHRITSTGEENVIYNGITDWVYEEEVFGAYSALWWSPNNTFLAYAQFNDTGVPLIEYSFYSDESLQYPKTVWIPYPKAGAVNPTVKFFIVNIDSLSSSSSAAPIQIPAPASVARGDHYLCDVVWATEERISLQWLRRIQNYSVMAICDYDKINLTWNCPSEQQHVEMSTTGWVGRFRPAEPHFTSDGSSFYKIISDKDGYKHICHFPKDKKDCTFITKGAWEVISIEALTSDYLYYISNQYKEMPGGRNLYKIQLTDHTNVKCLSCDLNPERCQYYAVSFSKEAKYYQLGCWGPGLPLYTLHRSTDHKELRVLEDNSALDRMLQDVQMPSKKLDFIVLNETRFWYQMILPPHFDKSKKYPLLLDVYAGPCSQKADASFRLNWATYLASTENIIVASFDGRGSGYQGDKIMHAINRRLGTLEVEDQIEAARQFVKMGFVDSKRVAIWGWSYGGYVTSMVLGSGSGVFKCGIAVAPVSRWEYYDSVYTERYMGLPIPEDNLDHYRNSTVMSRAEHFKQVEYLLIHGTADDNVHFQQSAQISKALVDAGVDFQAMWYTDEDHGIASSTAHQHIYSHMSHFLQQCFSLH

Structure (SMILES): N[C@H]1C[C@@H](N2Cc3cn(S(=O)(=O)C4CC4)nc3C2)[C@@H](C(F)(F)F)O[C@@H]1c1cc(F)ccc1F [Compound 1]
Decrease in AUC (blood sugar, OGTT) [1]: 27.20%

AUC(0-t) [2]: 106000 ng·h/mL | Cmax [2]: 11600 ng/mL | half-life [2]: 7.1 h | concentration at 0 h ([3]; 0 h): 0 nM | concentration at 0.5 h ([3]; 0.5 h): 270 nM | concentration at 1 h ([3]; 1 h): 1060 nM | concentration at 2 h ([3]; 2 h): 5640 nM | concentration at 4 h ([3]; 4 h): 2560 nM | concentration at 8 h ([3]; 8 h): 4220 nM | concentration at 12 h ([3]; 12 h): 4010 nM | concentration at 24 h ([3]; 24 h): 2930 nM | concentration at 32 h ([3]; 32 h): 2560 nM | concentration at 48 h ([3]; 48 h): 1940 nM | concentration at 56 h ([3]; 56 h): 1280 nM | concentration at 72 h ([3]; 72 h): 1120 nM | concentration at 80 h ([3]; 80 h): 680 nM | concentration at 96 h ([3]; 96 h): 710 nM | concentration at 104 h ([3]; 104 h): 440 nM | concentration at 120 h ([3]; 120 h): 340 nM | concentration at 128 h ([3]; 128 h): 270 nM | concentration at 144 h ([3]; 144 h): 210 nM | concentration at 152 h ([3]; 152 h): 160 nM | concentration at 168 h ([3]; 168 h): 140 nM | concentration at 216 h ([3]; 216 h): 71 nM | concentration at 240 h ([3]; 240 h): 41 nM | concentration at 264 h ([3]; 264 h): 32 nM
Structure (SMILES): CS(=O)(=O)n1cc2c(n1)CN([C@@H]1C[C@H](N)[C@@H](c3cc(F)ccc3F)O[C@@H]1C(F)(F)F)C2 [Compound 3, (2R,3S,5R,6S)-2-(2,5-difluorophenyl)-5-(2-(methylsulfonyl)pyrrolo[3,4-c]pyrazol-5(2H,4H,6H)-yl)-6-(trifluoromethyl)tetrahydro-2H-pyran-3-amine]
Decrease in AUC (blood sugar, OGTT) [1]: 27.99%

AUC(0-t) [2]: 66800 ng·h/mL | Cmax [2]: 9290 ng/mL | half-life [2]: 6.1 h | Duration of Inhibition ≥70% [4]: 55 h | Duration of Inhibition ≥80% [5]: 162 h | response vs control in vivo at 30 mg/kg ([6]; 2 h): 5.8% | response vs control in vivo at 30 mg/kg ([6]; 4 h): 5.4% | response vs control in vivo at 30 mg/kg ([6]; 10 h): 5.5% | response vs control in vivo at 30 mg/kg ([6]; 24 h): 30% | response vs control in vivo at 30 mg/kg ([6]; 34 h): 34.5% | response vs control in vivo at 30 mg/kg ([6]; 48 h): 58.1% | response vs control in vivo at 30 mg/kg ([6]; 58 h): 49.9% | response vs control in vivo at 30 mg/kg ([6]; 72 h): 66.7%
Structure (SMILES): CS(=O)(=O)n1cc2c(n1)CN([C@H]1CO[C@H](c3cc(F)ccc3F)[C@@H](N)C1)C2 [Omarigliptin]
Decrease in AUC (blood sugar, OGTT) [1]: 22.27%
